According to the kinase profiling compilation of Christmann-Franck et al. (2016):

Columns and labels:
Assay in all cases: radiometric filter-binding kinase assay, Kinaseprofiler
ACVR1B (human) = ACVR1B (human) (UniProt P36896); conditions: compound 10.0 µM; ATP 10 µM
AURKB (human) = AURKB (human) (UniProt Q96GD4); conditions: ATP 10 µM
[1] = test system: BLK (human), P51451 [M278V]; conditions: compound 10.0 µM; ATP 45 µM
BRSK1 (human) = BRSK1 (human) (UniProt Q8TDC3); conditions: ATP 200 µM
CAMK1D (human) = CAMK1D (human) (UniProt Q8IU85); conditions: compound 10.0 µM; ATP 15 µM
CDK3 CCNE1 (human) = CDK3 CCNE1 (human) (UniProt Q00526+P24864); conditions: ATP 200 µM
CHEK1 (human) = CHEK1 (human) (UniProt O14757); conditions: compound 10.0 µM; ATP 90 µM
DAPK2 (human) = DAPK2 (human) (UniProt Q9UIK4); conditions: compound 10.0 µM; ATP 10 µM
FER (human) = FER (human) (UniProt P16591); conditions: compound 10.0 µM; ATP 70 µM
FGR (human) = FGR (human) (UniProt P09769); conditions: compound 10.0 µM; ATP 45 µM
FYN (human) = FYN (human) (UniProt P06241); conditions: compound 10.0 µM; ATP 70 µM
GCK (human) = GCK (human) (UniProt Q12851); conditions: compound 1.0 µM; ATP 200 µM
[2] = test system: HIPK2 (human), Q9H2X6 [I471N]; conditions: compound 10.0 µM; ATP 10 µM
HIPK3 (human) = HIPK3 (human) (UniProt Q9H422); conditions: compound 10.0 µM; ATP 15 µM
INSR (human) = INSR (human) (UniProt P06213); conditions: compound 10.0 µM; ATP 45 µM
IRAK1 (human) = IRAK1 (human) (UniProt P51617); conditions: compound 10.0 µM; ATP 45 µM
[3] = biological target: JAK2 JH1 catalytic (human) (UniProt O60674); conditions: compound 10.0 µM; ATP 45 µM
LYN (human) = LYN (human) (UniProt P07948); conditions: compound 10.0 µM; ATP 70 µM
MAP2K7 (human) = MAP2K7 (human) (UniProt O14733); conditions: compound 10.0 µM; ATP 10 µM
MAP3K5 (human) = MAP3K5 (human) (UniProt Q99683); conditions: ATP 200 µM
MAP3K7 (human) = MAP3K7 (human) (UniProt O43318); conditions: ATP 45 µM
MAPK1 (human) = MAPK1 (human) (UniProt P28482); conditions: compound 10.0 µM; ATP 155 µM
MAPK10 (human) = MAPK10 (human) (UniProt P53779); conditions: ATP 10 µM
MARK2 (human) = MARK2 (human) (UniProt Q7KZI7); conditions: compound 10.0 µM; ATP 15 µM
MINK1 (human) = MINK1 (human) (UniProt Q8N4C8); conditions: compound 1.0 µM; ATP 185 µM
PAK4 (human) = PAK4 (human) (UniProt O96013); conditions: compound 10.0 µM; ATP 10 µM
PRKD2 (human) = PRKD2 (human) (UniProt Q9BZL6); conditions: compound 10.0 µM; ATP 155 µM
PTK2B (human) = PTK2B (human) (UniProt Q14289); conditions: compound 10.0 µM; ATP 90 µM
RPS6KA4 KD1 KD2 (human) = RPS6KA4 KD1 KD2 (human) (UniProt O75676); conditions: ATP 45 µM
RPS6KA6 KD1 KD2 (human) = RPS6KA6 KD1 KD2 (human) (UniProt Q9UK32); conditions: compound 1.0 µM; ATP 45 µM
SIK1 (human) = SIK1 (human) (UniProt P57059); conditions: ATP 45 µM
STK24 (human) = STK24 (human) (UniProt Q9Y6E0); conditions: compound 10.0 µM; ATP 15 µM
TBK1 (human) = TBK1 (human) (UniProt Q9UHD2); conditions: compound 1.0 µM; ATP 155 µM
TLK2 (human) = TLK2 (human) (UniProt Q86UE8); conditions: compound 10.0 µM; ATP 10 µM
TSSK2 (human) = TSSK2 (human) (UniProt Q96PF2); conditions: compound 10.0 µM; ATP 15 µM
ULK2 (human) = ULK2 (human) (UniProt Q8IYT8); conditions: compound 10.0 µM; ATP 15 µM
ULK3 (human) = ULK3 (human) (UniProt Q6PHR2); conditions: compound 1.0 µM; ATP 10 µM

Sequence of SIK1 (human) (P57059 whole entry, looked up): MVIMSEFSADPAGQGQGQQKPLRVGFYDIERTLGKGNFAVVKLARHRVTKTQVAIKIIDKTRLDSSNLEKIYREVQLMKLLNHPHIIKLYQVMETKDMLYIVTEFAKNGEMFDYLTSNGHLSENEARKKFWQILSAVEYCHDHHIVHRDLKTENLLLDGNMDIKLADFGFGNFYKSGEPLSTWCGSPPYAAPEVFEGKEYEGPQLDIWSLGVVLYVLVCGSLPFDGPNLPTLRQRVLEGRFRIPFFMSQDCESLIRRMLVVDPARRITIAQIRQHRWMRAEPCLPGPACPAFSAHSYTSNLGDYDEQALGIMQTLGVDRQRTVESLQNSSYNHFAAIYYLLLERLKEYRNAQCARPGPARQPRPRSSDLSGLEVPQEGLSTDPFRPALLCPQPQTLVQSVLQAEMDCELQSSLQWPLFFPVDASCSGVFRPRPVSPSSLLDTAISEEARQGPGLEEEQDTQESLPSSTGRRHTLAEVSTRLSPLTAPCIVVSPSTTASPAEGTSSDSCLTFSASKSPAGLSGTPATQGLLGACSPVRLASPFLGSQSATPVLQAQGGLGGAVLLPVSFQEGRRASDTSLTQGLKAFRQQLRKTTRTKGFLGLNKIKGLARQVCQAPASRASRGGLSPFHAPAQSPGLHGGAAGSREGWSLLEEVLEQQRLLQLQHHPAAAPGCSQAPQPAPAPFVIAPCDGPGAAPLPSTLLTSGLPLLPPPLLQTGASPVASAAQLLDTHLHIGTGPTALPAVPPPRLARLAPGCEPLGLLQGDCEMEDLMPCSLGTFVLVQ
Sequence of MAPK10 (human) (P53779 whole entry, looked up): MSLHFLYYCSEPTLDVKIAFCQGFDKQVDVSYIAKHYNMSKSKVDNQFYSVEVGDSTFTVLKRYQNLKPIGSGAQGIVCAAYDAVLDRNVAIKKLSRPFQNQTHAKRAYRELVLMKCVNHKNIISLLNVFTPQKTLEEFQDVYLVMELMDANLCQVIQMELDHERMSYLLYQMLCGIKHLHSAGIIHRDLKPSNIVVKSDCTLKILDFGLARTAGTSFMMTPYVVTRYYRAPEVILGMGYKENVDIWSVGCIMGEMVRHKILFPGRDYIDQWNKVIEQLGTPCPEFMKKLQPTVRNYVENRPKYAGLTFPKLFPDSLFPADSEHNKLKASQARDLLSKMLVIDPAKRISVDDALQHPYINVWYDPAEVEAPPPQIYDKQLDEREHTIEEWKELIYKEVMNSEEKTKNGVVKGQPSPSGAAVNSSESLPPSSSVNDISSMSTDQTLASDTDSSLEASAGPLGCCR
Sequence of MAP3K5 (human) (Q99683 whole entry, looked up): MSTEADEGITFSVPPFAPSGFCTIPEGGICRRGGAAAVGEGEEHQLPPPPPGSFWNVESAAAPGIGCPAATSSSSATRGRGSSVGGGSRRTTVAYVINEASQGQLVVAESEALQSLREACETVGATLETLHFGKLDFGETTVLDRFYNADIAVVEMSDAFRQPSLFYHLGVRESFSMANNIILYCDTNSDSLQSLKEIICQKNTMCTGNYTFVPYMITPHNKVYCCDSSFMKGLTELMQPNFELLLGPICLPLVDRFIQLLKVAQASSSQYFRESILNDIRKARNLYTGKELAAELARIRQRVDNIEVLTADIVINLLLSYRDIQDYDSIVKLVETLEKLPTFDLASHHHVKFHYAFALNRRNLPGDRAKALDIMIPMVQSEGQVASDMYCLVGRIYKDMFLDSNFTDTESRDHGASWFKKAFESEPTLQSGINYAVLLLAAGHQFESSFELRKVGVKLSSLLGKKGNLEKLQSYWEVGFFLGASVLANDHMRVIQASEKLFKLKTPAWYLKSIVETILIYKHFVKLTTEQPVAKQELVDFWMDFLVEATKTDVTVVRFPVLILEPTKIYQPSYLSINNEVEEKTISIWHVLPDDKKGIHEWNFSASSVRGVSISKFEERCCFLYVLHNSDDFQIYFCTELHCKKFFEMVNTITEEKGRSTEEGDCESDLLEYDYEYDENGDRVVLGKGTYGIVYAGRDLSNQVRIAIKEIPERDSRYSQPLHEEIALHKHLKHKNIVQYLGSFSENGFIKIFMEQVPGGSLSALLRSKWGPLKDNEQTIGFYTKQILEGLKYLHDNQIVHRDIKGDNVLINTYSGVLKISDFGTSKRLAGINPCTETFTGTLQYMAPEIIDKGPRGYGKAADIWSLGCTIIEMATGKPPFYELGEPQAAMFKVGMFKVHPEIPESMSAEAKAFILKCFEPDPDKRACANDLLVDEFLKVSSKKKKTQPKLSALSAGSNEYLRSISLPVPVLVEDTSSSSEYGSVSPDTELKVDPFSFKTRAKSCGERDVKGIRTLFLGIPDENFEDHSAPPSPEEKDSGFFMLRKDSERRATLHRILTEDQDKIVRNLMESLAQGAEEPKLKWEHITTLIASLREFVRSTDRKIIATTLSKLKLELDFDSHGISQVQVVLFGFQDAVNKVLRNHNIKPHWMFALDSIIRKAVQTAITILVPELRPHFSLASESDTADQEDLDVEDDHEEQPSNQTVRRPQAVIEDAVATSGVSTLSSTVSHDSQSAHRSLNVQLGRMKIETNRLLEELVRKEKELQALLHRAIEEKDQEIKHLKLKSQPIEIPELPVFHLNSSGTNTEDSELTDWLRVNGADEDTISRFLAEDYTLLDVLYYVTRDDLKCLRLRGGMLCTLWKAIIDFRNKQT
Sequence of RPS6KA4 KD1 KD2 (human) (O75676 whole entry, looked up): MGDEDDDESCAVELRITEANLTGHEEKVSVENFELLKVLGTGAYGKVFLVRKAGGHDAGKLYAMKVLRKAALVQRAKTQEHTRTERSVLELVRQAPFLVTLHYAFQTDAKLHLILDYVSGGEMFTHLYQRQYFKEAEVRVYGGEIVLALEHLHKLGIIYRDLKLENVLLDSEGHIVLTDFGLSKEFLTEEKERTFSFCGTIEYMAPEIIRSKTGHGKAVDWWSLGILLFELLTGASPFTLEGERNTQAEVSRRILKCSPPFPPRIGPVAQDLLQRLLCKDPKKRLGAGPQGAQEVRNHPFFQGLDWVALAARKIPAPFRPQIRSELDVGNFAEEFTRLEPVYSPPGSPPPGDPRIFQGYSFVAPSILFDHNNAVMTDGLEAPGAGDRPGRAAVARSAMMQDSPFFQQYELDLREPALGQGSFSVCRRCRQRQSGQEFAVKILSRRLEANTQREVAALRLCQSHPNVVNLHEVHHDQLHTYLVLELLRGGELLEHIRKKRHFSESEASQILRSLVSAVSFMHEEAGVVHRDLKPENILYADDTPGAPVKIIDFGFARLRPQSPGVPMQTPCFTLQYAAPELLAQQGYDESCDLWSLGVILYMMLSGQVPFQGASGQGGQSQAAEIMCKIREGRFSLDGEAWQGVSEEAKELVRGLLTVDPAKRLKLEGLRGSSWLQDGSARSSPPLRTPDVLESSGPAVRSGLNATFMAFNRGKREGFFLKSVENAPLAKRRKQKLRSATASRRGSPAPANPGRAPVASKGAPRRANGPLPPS
Sequence of CDK3 CCNE1 (human) (P24864 whole entry, looked up): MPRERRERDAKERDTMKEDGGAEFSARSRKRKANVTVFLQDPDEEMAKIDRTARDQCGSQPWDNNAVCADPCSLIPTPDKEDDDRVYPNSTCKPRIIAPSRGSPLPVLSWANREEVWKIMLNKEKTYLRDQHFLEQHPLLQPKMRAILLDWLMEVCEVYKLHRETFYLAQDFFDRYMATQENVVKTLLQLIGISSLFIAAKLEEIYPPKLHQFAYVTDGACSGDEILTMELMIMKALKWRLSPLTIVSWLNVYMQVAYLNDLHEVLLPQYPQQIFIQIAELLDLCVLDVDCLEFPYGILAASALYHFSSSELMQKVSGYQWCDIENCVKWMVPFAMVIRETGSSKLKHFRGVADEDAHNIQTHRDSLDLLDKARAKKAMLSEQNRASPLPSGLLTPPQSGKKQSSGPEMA
Sequence of CDK3 CCNE1 (human) (Q00526 whole entry, looked up): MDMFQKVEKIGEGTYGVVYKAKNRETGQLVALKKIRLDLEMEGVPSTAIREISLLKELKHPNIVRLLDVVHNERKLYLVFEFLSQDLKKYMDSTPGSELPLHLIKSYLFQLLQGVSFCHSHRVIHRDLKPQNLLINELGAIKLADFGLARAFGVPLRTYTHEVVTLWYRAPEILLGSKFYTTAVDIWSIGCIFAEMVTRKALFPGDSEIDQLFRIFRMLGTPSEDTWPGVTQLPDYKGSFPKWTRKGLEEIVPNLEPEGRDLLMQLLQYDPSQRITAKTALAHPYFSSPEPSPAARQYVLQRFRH
Sequence of MAP3K7 (human) (O43318 whole entry, looked up): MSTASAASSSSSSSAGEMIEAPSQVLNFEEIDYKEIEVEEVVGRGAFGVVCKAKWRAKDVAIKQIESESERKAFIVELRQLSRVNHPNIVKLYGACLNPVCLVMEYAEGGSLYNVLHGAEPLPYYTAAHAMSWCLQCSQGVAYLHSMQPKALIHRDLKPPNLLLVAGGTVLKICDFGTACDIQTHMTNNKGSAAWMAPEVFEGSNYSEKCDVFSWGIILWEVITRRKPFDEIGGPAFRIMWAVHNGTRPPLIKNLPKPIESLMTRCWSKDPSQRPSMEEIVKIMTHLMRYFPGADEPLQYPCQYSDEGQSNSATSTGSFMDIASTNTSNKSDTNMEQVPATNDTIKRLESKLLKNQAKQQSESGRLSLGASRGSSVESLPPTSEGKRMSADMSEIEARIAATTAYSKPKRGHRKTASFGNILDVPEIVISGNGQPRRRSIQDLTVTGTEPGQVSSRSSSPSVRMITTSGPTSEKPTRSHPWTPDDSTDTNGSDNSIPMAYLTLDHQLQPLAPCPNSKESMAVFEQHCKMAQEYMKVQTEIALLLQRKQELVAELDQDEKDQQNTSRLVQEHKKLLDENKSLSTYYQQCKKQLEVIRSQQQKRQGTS

## COC(=O)[C@]1(O)C[C@@H]2O[C@@]1(C)n1c3ccccc3c3c4c(c5c6ccccc6n2c5c31)C(=O)NC4
ACVR1B (human)
  residual activity: 0%
AURKB (human); compound 1.0 µM
  residual activity: 0%
AURKB (human); compound 10.0 µM
  residual activity: 0%
[1]
  residual activity: 0%
BRSK1 (human); compound 1.0 µM
  residual activity: -1%
BRSK1 (human); compound 10.0 µM
  residual activity: 0%
CAMK1D (human)
  residual activity: 0%
CDK3 CCNE1 (human); compound 1.0 µM
  residual activity: 27%
CDK3 CCNE1 (human); compound 10.0 µM
  residual activity: 2%
CHEK1 (human)
  residual activity: -1%
DAPK2 (human)
  residual activity: -3%
FER (human)
  residual activity: 0%
FGR (human)
  residual activity: -1%
FYN (human)
  residual activity: 0%
GCK (human)
  residual activity: 0%
[2]
  residual activity: -1%
HIPK3 (human)
  residual activity: -4%
INSR (human)
  residual activity: 0%
IRAK1 (human)
  residual activity: 0%
[3]
  residual activity: -1%
LYN (human)
  residual activity: 0%
MAP2K7 (human)
  residual activity: 0%
MAP3K5 (human); compound 1.0 µM
  residual activity: 0%
MAP3K5 (human); compound 10.0 µM
  residual activity: 0%
MAP3K7 (human); compound 1.0 µM
  residual activity: -1%
MAP3K7 (human); compound 10.0 µM
  residual activity: -5%
MAPK1 (human)
  residual activity: -3%
MAPK10 (human); compound 1.0 µM
  residual activity: -3%
MAPK10 (human); compound 10.0 µM
  residual activity: -1%
MARK2 (human)
  residual activity: -2%
MINK1 (human)
  residual activity: 0%
PAK4 (human)
  residual activity: 0%
PRKD2 (human)
  residual activity: 0%
PTK2B (human)
  residual activity: -1%
RPS6KA4 KD1 KD2 (human); compound 1.0 µM
  residual activity: -1%
RPS6KA4 KD1 KD2 (human); compound 10.0 µM
  residual activity: 0%
RPS6KA6 KD1 KD2 (human)
  residual activity: -2%
SIK1 (human); compound 1.0 µM
  residual activity: 0%
SIK1 (human); compound 10.0 µM
  residual activity: 0%
STK24 (human)
  residual activity: 0%
TBK1 (human)
  residual activity: -1%
TLK2 (human)
  residual activity: 0%
TSSK2 (human)
  residual activity: 0%
ULK2 (human)
  residual activity: 0%
ULK3 (human)
  residual activity: 0%
